Experimental findings from patent publication US12673954B2 (BRISTOL-MYERS SQUIBB COMPANY, priority 2021, dated 2026) are described below.

Assay [1] deals with NF-κB pathway, THP1-Dual™ cells. The experiment in a line: STING reporter assay in THP1-Dual cells, NF-κB pathway (SEAP, QUANTI-Blue). In kind it is cell-based, human. To be noted: Homo sapiens, THP1-Dual, 20 h, THP1-Dual cells, 10% human plasma, 20 hours; SEAP; 100% activation = 100 μM cGAMP; read-out: NFkB (EC50 μM). The procedure, abridged: (§1)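 THP-1-derived dual-reporter cells treated with serially diluted compounds (final top concentration 100 μM) for 20 h at 37° C. NF-κB read as SEAP via QUANTI-Blue at OD620; IRF read as Lucia luminescence via QUANTI-Luc after 5 min. 100% activation set by 100 μM cGAMP, baseline by DMSO.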
For orientation: Reporter assays use an easily measured gene product as a stand-in for the process of interest.

In assay [2] the test system is IRF pathway, THP1-Dual™ cells. The experiment in a line: STING reporter assay in THP1-Dual cells, IRF pathway (Lucia luciferase, QUANTI-Luc). To be noted: Homo sapiens, THP1-Dual, 20 h, THP1-Dual cells, 10% human plasma, 20 hours; Lucia luciferase; 100% activation = 100 μM cGAMP; read-out: IRF (EC50 μM). In kind it is cell-based, human. The procedure, abridged: as §1

The term EC50 denotes the concentration needed to bring the measured effect to its halfway point. As to `Cc1cc(C(=O)O[C@@H](C)C(F)(F)F)c2oc(C(C)NC(=O)c3cnn4cccnc34)cc2c1` (stereo partly drawn) [EXAMPLE 277, (S)-1,1,1-Trifluoropropan-2-yl 5-methyl-2-(1-(pyrazolo[1,5-a]pyrimidine-3-carboxamido)ethyl)benzofuran-7-carboxylate], the EC50 in assay [1] came to 16 µM; in assay [2], 13 µM.

`Cc1cc(CC(=O)OCC(F)(F)F)c2oc(CNC(=O)c3cnn4cccnc34)cc2c1` [EXAMPLE 278, 2,2,2-Trifluoroethyl 2-(5-methyl-2-((pyrazolo[1,5-a]pyrimidine-3-carboxamido)methyl)benzofuran-7-yl)acetate]: the EC50 in assay [1] stood at 5.5 µM; in assay [2] it was 6.6 µM.

Regarding `Cc1cc(CC(=O)O[C@H](C)C(F)(F)F)c2oc(CNC(=O)c3cnn4cccnc34)cc2c1` [EXAMPLE 279, (R)-1,1,1-Trifluoropropan-2-yl 2-(5-methyl-2-((pyrazolo[1,5-a]pyrimidine-3-carboxamido)methyl)benzofuran-7-yl)acetate], the EC50 in assay [1] was determined as 25 µM; in assay [2] it was 35 µM.

For the compound `COc1cc(C(=O)OCC(F)(F)F)c2oc(CNC(=O)c3cnn4cccnc34)cc2c1` [EXAMPLE 280, 2,2,2-Trifluoroethyl 5-methoxy-2-((pyrazolo[1,5-a]pyrimidine-3-carboxamido)methyl)benzofuran-7-carboxylate], the EC50 in assay [1] stood at 2.4 µM; in assay [2], 2.5 µM.

Consider `N#Cc1cc(C(=O)OCC(F)(F)F)c2oc(CNC(=O)c3cnn4cccnc34)cc2c1` [EXAMPLE 282, 2,2,2-Trifluoroethyl 5-cyano-2-((pyrazolo[1,5-a]pyrimidine-3-carboxamido)methyl)benzofuran-7-carboxylate], for which the EC50 in assay [1] and in assay [2] was 12 µM in each case.

Take `O=C(OCC(F)(F)F)c1cc(C(F)(F)F)cc2cc(CNC(=O)c3cnn4cccnc34)oc12` [EXAMPLE 283, 2,2,2-Trifluoroethyl 2-((pyrazolo[1,5-a]pyrimidine-3-carboxamido)methyl)-5-(trifluoromethyl)benzofuran-7-carboxylate]: the EC50 is 0.52 µM in assay [1] and 0.4 µM in assay [2].

On to `C[C@@H](OC(=O)c1c(F)c(F)cc2cc(CNC(=O)c3cnn4cccnc34)oc12)C(F)(F)F` [EXAMPLE 284, (R)-1,1,1-Trifluoropropan-2-yl 5,6-difluoro-2-((pyrazolo[1,5-a]pyrimidine-3-carboxamido)methyl)benzofuran-7-carboxylate], for which the EC50 in assay [1] is 6.3 µM; in assay [2], 9.6 µM.

Take `C[C@@H](OC(=O)c1c(F)ccc2cc(CNC(=O)c3cnn4cccnc34)oc12)C(F)(F)F` [EXAMPLE 285, (R)-1,1,1-Trifluoropropan-2-yl 6-fluoro-2-((pyrazolo[1,5-a]pyrimidine-3-carboxamido)methyl)benzofuran-7-carboxylate]: the EC50 in assay [1] was 1.9 µM; in assay [2] it was 1.4 µM.

Consider `O=C(OCC(F)(F)F)c1c(F)ccc2cc(CNC(=O)c3cnn4cccnc34)oc12` [EXAMPLE 286, 2,2,2-Trifluoroethyl 6-fluoro-2-((pyrazolo[1,5-a]pyrimidine-3-carboxamido)methyl)benzofuran-7-carboxylate], for which the values for the EC50 in assay [1] and in assay [2] were 2.5 µM and 2.7 µM, respectively.

In the case of `Cc1ccc2cc(CNC(=O)c3cnn4cccnc34)oc2c1C(=O)OCC(F)(F)F` [EXAMPLE 287, 2,2,2-Trifluoroethyl 6-methyl-2-((pyrazolo[1,5-a]pyrimidine-3-carboxamido)methyl)benzofuran-7-carboxylate], the results for the EC50 in assay [1] and in assay [2] were 18 µM and 12 µM, respectively.

In the case of `C[C@@H](OC(=O)c1cc(F)cc2c(Cl)c(CNC(=O)c3cnn4cccnc34)oc12)C(F)(F)F` [EXAMPLE 288, (R)-1,1,1-Trifluoropropan-2-yl 3-chloro-5-fluoro-2-((pyrazolo[1,5-a]pyrimidine-3-carboxamido)methyl)benzofuran-7-carboxylate], the EC50 in assay [1] and in assay [2] was 0.36 µM throughout.

Take `C[C@H](OC(=O)c1cc(F)cc2c(Cl)c(CNC(=O)c3cnn4cccnc34)oc12)C(F)(F)F` [EXAMPLE 289, (S)-1,1,1-Trifluoropropan-2-yl 3-chloro-5-fluoro-2-((pyrazolo[1,5-a]pyrimidine-3-carboxamido)methyl)benzofuran-7-carboxylate]: the EC50 in assay [1] is 0.71 µM; in assay [2], 0.62 µM.

As to `O=C(OC(CF)CF)c1cc(F)cc2c(Cl)c(CNC(=O)c3cnn4cccnc34)oc12` [EXAMPLE 290, 1,3-Difluoropropan-2-yl 3-chloro-5-fluoro-2-((pyrazolo[1,5-a]pyrimidine-3-carboxamido)methyl)benzofuran-7-carboxylate], the figures for the EC50 in assay [1] and in assay [2] were 0.35 µM and 0.25 µM, respectively.

Turning to `O=C(OC1CC(F)(F)C1)c1cc(F)cc2c(Cl)c(CNC(=O)c3cnn4cccnc34)oc12` [EXAMPLE 291, 3,3-Difluorocyclobutyl 3-chloro-5-fluoro-2-((pyrazolo[1,5-a]pyrimidine-3-carboxamido)methyl)benzofuran-7-carboxylate], the EC50 in assay [1] was 0.31 µM; in assay [2], 0.34 µM.

Consider `C[C@H](NC(=O)c1cnn2cccnc12)c1oc2c(C(=O)OCC(F)(F)F)cc(F)cc2c1Cl` [EXAMPLE 292, 2,2,2-Trifluoroethyl (S)-3-chloro-5-fluoro-2-(1-(pyrazolo[1,5-a]pyrimidine-3-carboxamido)ethyl)benzofuran-7-carboxylate], for which the results for the EC50 in assay [1] and in assay [2] were 1.1 µM and 1.7 µM, respectively.

As for `C[C@H](NC(=O)c1cnn2cccnc12)c1oc2c(C(=O)O[C@H](C)C(F)(F)F)cc(F)cc2c1Cl` [EXAMPLE 293, (R)-1,1,1-Trifluoropropan-2-yl 3-chloro-5-fluoro-2-((S)-1-(pyrazolo[1,5-a]pyrimidine-3-carboxamido)ethyl)benzofuran-7-carboxylate], the EC50 in assay [1] worked out at 3.8 µM; in assay [2], 4.4 µM.

Turning to `O=C(OCC(F)(F)F)c1cc(Cl)cc2c(Cl)c(CNC(=O)c3cnn4cccnc34)oc12` [EXAMPLE 294, 2,2,2-Trifluoroethyl 3,5-dichloro-2-((pyrazolo[1,5-a]pyrimidine-3-carboxamido)methyl)benzofuran-7-carboxylate], the EC50 in assay [1] came out at 0.93 µM; in assay [2], 0.8 µM.

Take `C[C@@H](OC(=O)c1cc(Cl)cc2c(Cl)c(CNC(=O)c3cnn4cccnc34)oc12)C(F)(F)F` [EXAMPLE 295, (R)-1,1,1-Trifluoropropan-2-yl 3,5-dichloro-2-((pyrazolo[1,5-a]pyrimidine-3-carboxamido)methyl)benzofuran-7-carboxylate]: the EC50 was 0.56 µM in assay [1] and 1.1 µM in assay [2].

In the case of `C[C@H](NC(=O)c1cnn2cccnc12)c1oc2c(C(=O)O[C@H](C)C(F)(F)F)cc(Cl)cc2c1Cl` [EXAMPLE 296, (R)-1,1,1-Trifluoropropan-2-yl 3,5-dichloro-2-((S)-1-(pyrazolo[1,5-a]pyrimidine-3-carboxamido)ethyl)benzofuran-7-carboxylate], the EC50 in assay [1] came to 4.6 µM; in assay [2], 5.7 µM.

With `C[C@H](NC(=O)c1cnn2cccnc12)c1oc2c(C(=O)OCC(F)(F)F)cc(Cl)cc2c1Cl` [EXAMPLE 297, 2,2,2-Trifluoroethyl (S)-3,5-dichloro-2-(1-(pyrazolo[1,5-a]pyrimidine-3-carboxamido)ethyl)benzofuran-7-carboxylate], the EC50 turned out to be 3.2 µM in assay [1] and 3.1 µM in assay [2].

For the compound `C[C@H](NC(=O)c1cnn2cccnc12)c1oc2c(C(=O)OC3COC3)cc(Cl)cc2c1Cl` [EXAMPLE 298, Oxetan-3-yl (S)-3,5-dichloro-2-(1-(pyrazolo[1,5-a]pyrimidine-3-carboxamido)ethyl)benzofuran-7-carboxylate], the EC50 in assay [1] came out at 3.3 µM; in assay [2] it was 3.6 µM.

Take `Cc1cc(C(=O)OCC(F)(F)F)c2oc(CNC(=O)c3cnn4cccnc34)c(Cl)c2c1` [EXAMPLE 299, 2,2,2-Trifluoroethyl 3-chloro-5-methyl-2-((pyrazolo[1,5-a]pyrimidine-3-carboxamido)methyl)benzofuran-7-carboxylate]: the EC50 in assay [1] came out at 0.33 µM; in assay [2], 0.28 µM.

With `Cc1cc(C(=O)O[C@H](C)C(F)(F)F)c2oc(CNC(=O)c3cnn4cccnc34)c(Cl)c2c1` [EXAMPLE 300, (R)-1,1,1-Trifluoropropan-2-yl 3-chloro-5-methyl-2-((pyrazolo[1,5-a]pyrimidine-3-carboxamido)methyl)benzofuran-7-carboxylate], the EC50 in assay [1] turned out to be 0.71 µM; in assay [2] it was 0.76 µM.

For `Cc1cc(C(=O)O[C@@H](C)C(F)(F)F)c2oc(CNC(=O)c3cnn4cccnc34)c(Cl)c2c1` [EXAMPLE 301, (S)-1,1,1-Trifluoropropan-2-yl 3-chloro-5-methyl-2-((pyrazolo[1,5-a]pyrimidine-3-carboxamido)methyl)benzofuran-7-carboxylate], the EC50 in assay [1] was determined as 2.7 µM; in assay [2], 2.1 µM.

Consider `Cc1cc(C(=O)OC(CF)CF)c2oc(CNC(=O)c3cnn4cccnc34)c(Cl)c2c1` [EXAMPLE 302, 1,3-Difluoropropan-2-yl 3-chloro-5-methyl-2-((pyrazolo[1,5-a]pyrimidine-3-carboxamido)methyl)benzofuran-7-carboxylate], for which the EC50 in assay [1] was found to be 0.52 µM; in assay [2] it was 0.43 µM.

In the case of `Cc1cc(C(=O)OC2CC(F)(F)C2)c2oc(CNC(=O)c3cnn4cccnc34)c(Cl)c2c1` [EXAMPLE 303, 3,3-Difluorocyclobutyl 3-chloro-5-methyl-2-((pyrazolo[1,5-a]pyrimidine-3-carboxamido)methyl)benzofuran-7-carboxylate], the EC50 in assay [1] turned out to be 0.58 µM; in assay [2], 0.53 µM.
